Experimental data taken from ChEMBL document CHEMBL2073780, “The antiprogestatin drug RU 486 potentiates doxorubicin cytotoxicity in multidrug resistant cells through inhibition of P-glycoprotein function” (FEBS Lett, 1994).

Legend:
Format in all cases: functional, cell-based
[1] = target: Multidrug resistance protein 1a (Rattus norvegicus) (UniProt Q6PSM0); assay: TP_TRANSPORTER: increase in Doxorubicin intracellular accumulation (Doxorubicin: 10 ug/mL, Progesterone: 10 uM) in RHC1 cells
[2] = target: ATP-dependent translocase ABCB1 (Homo sapiens, UniProt P08183); assay: TP_TRANSPORTER: increase in Doxorubicin intracellular accumulation (Doxorubicin: 10 ug/mL, RU486: 10 uM) in K562 R7 cells; conditions: k562/r7, 10 µM
ATP-dependent translocase ABCB1, sequence (P08183 whole entry): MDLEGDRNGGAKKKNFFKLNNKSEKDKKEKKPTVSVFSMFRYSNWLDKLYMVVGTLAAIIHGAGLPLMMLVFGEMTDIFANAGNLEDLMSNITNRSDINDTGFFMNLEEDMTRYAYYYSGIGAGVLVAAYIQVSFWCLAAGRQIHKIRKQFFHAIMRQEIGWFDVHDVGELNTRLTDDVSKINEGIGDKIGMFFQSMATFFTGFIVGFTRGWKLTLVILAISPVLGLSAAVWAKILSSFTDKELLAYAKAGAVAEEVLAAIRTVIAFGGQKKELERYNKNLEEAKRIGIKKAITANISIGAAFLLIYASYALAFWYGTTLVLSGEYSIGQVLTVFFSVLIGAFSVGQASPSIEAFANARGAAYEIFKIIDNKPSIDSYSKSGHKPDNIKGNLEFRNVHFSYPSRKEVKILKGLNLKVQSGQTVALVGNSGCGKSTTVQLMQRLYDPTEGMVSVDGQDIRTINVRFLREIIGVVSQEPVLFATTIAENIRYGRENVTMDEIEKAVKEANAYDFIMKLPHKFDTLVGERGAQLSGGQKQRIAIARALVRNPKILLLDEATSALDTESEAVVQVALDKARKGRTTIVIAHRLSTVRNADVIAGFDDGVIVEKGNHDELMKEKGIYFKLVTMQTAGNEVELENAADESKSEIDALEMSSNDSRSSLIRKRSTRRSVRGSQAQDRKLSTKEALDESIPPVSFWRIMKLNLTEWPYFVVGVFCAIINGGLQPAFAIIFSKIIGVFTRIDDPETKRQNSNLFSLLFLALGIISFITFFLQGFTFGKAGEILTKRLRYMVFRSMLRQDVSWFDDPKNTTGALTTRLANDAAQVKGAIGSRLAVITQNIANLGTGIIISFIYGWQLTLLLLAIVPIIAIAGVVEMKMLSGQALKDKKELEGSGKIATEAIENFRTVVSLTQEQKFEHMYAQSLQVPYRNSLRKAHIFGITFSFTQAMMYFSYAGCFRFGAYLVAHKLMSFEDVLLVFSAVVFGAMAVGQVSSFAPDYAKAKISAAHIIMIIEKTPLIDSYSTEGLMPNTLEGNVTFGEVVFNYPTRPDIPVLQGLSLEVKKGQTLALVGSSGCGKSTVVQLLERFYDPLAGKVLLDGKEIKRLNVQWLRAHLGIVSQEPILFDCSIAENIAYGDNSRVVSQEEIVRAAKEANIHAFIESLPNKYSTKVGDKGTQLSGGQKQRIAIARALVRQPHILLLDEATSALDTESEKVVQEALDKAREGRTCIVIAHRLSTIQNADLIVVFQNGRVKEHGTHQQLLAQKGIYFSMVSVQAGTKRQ

[3] = target: Multidrug resistance protein 1a (Rattus norvegicus) (UniProt Q6PSM0); assay: TP_TRANSPORTER: increase in Doxorubicin intracellular accumulation (Doxorubicin: 10 ug/mL, RU486: 10 uM) in RHC1 cells

Multidrug resistance protein 1a (Rattus norvegicus), sequence (Q6PSM0 as listed by the source): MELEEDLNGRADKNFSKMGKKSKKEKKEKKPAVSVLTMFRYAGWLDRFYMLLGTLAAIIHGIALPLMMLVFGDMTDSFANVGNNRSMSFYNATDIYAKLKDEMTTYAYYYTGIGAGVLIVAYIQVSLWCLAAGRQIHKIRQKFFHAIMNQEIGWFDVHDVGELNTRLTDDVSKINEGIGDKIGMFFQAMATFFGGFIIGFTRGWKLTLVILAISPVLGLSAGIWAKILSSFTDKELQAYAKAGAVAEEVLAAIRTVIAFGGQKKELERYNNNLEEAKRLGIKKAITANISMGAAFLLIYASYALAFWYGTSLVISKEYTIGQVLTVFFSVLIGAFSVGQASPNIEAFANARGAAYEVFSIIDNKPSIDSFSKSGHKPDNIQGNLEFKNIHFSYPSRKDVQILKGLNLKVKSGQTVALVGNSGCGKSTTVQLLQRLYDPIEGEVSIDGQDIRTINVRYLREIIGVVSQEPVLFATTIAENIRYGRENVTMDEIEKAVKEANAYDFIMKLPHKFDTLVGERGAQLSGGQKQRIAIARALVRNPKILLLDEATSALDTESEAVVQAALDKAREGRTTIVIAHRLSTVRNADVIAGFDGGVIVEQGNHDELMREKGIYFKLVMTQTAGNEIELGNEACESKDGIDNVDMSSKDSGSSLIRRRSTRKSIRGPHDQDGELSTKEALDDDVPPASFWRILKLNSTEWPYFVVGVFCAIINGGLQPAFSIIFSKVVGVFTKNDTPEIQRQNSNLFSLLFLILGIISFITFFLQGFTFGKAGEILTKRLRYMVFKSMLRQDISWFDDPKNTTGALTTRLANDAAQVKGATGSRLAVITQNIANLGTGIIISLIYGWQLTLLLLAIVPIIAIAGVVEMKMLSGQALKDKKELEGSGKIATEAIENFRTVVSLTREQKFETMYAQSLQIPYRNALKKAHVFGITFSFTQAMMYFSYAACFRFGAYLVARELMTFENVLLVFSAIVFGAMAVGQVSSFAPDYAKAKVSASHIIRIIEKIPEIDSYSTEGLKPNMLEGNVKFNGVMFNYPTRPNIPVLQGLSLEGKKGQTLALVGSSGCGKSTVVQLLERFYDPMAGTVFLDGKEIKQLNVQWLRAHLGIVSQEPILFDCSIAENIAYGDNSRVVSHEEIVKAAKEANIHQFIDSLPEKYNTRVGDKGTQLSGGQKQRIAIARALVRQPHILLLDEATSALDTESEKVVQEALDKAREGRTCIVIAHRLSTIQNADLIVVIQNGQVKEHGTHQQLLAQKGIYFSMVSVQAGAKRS

CC(=O)[C@H]1CC[C@H]2[C@@H]3CCC4=CC(=O)CC[C@]4(C)[C@H]3CC[C@]12C
Activity [1]: inhibitor [+]

CC#C[C@]1(O)CC[C@H]2[C@@H]3CCC4=CC(=O)CCC4=C3[C@@H](c3ccc(N(C)C)cc3)C[C@@]21C [MIFEPRISTONE]
Activity [2]: inhibitor [+] | Activity [3]: inhibitor [+]
